Data set [1] deals with Immature Rat CX + DHT. The data set is described as follows: animal or person. The data set is classed as in vivo. The note with it: for change in vivo at 0.1 mg / change in vivo at 0.5 mg: Rattus norvegicus, 168 h.
Data set [2] concerns the target T1, Rat Androgen Receptor (Rattus norvegicus, UniProt P15207).
T1 construct: ventral prostates collected from 24 h-gonadectomized rats were homogenized in buffer A; from tissue; host or cells: rat ventral prostate cytosol (24 h-gonadectomized rats)
T1 sequence (P15207 1-902): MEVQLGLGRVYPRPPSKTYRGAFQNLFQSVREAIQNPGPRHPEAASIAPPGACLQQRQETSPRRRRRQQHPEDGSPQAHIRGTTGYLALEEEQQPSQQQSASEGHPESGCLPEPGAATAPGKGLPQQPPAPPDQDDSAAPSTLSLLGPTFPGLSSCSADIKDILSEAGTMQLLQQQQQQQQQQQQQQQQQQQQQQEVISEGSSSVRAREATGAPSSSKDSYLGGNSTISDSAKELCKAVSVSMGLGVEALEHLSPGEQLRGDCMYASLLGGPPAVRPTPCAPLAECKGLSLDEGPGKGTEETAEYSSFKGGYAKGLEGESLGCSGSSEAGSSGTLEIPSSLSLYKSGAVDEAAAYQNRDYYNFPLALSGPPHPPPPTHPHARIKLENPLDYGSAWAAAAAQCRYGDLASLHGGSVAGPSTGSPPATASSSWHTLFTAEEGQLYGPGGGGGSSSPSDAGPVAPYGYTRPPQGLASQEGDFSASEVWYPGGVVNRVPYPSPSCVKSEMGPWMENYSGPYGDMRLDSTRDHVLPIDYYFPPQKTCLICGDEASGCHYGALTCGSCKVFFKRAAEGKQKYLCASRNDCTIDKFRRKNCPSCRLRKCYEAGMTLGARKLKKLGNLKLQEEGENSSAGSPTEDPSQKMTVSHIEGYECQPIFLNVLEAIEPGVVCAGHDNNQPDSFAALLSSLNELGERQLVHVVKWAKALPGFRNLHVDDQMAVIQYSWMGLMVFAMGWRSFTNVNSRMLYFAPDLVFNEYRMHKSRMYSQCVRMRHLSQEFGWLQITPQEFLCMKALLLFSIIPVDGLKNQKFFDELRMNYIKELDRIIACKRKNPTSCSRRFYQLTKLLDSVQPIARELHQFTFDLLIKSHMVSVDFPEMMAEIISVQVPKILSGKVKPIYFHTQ
Put plainly: Androgen receptor binding assay (HAP, [3H]R1881), rat prostate cytosol. As for the experimental part: On the morning of the binding assay, ventral prostates collected from 24 h-gonadectomized rats were homogenized in buffer A (1 g of tissue in 5 mL) and the homogenate was centrifuged as described above.
Androgen binding is measured using the hydroxylapatite (HAP) assay. In brief, the radioactive steroid [^3H]R1881 solubilized in ethanol is diluted with buffer B (10 mM Tris-HCl, 1.5 mM EDTA disodium salt, 10 mM α-monothioglycerol, pH 7.4). Aliquots of the cell or prostate cytosol preparation (0.1 ml) are then incubated with 5 nM [^3H]R1881 (0.1 ml, ˜100 000 cpm) in the presence or absence of the indicated concentrations of unlabeled compounds (0.1 ml, prepared in buffer B containing 30% ethanol) for 16-18 h at 0-4° C. Triamcinolone acetonide (TAC; 100 nM) is added to mask progesterone receptors. Unbound steroids are separated by incubation for 40 min at 0-4° C. with 0.3 ml HAP prepared in buffer P (50 mM Tris-HCl, 10 mM KH2PO4, pH 7.4). After incubation with HAP and 10 min of centrifugation at 1000×g, the pellet is washed 3 times with 1 ml of buffer P. Thereafter, the radioactivity is extracted from the pellet by incubation at room temperature for 60 min with 1 ml of ethanol. After centrifugation, the supernatant is decanted into a scintillation vial and the pellet is extracted again with ethanol. After the addition of scintillation liquid, the radioactivity is measured in a liquid scintillation counter.

The nature of data set [3]: in vivo. The settings on record: male, Sprague-Dawley, rat, po, 0.5 mg.
Data set [4] concerns the target T2, Human Androgen Receptor (Homo sapiens, UniProt P10275).
T2 construct: expressed in transfected cells; host or cells: HEK-293 cells stably transfected with the pCMVneo-hAR plasmid (G-418 selection); cytosol used
T2 sequence (P10275 1-920): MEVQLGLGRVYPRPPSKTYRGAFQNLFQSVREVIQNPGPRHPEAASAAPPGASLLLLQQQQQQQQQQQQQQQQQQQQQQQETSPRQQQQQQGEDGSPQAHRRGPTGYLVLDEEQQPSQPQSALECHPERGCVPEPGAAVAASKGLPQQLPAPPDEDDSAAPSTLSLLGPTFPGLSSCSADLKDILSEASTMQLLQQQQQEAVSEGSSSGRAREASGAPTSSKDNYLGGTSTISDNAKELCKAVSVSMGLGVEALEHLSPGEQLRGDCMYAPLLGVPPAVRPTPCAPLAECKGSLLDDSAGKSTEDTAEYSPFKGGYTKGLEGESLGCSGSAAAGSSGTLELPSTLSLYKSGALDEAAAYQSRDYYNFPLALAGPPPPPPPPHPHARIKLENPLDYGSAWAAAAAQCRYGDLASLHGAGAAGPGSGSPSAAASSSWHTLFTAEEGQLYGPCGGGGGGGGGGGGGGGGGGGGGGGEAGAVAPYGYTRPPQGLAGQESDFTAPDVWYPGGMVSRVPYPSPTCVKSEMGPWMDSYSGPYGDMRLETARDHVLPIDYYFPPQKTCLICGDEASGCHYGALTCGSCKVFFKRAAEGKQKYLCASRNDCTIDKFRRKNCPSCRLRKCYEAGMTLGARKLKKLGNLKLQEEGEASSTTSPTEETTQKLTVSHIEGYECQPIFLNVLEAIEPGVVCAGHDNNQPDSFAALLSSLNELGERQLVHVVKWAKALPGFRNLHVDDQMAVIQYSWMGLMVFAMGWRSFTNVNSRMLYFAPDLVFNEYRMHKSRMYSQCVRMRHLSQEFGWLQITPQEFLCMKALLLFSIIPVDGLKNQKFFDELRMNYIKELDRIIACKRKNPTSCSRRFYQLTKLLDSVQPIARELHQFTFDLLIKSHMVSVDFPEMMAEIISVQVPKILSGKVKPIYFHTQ
Format: binding.

Data set [5] has as its system CX+ 4-DIONE in Mature Rat. The data set is described as follows: Systemic antiandrogenic activity in mature male rats. Format: in vivo.
In data set [6] the test system is androgen receptor. Put plainly: Antiandrogen / SARM / androgen profile observed on structural change. The note with it: structure-activity observation in estratriene derivatives. The source says:
Preferred positions on the steroid to this change in activities are 3, 4, 11β, 16 and 17α. […] Moreover, when we changed the 4-fluoro by a 4-chloro on EM-6583, we obtained a pure androgen (EM-5697). Similarly, when we increased the size of the chain at 17α-position on (1,4-phenylene as a spacer group), EM-8419 became a SARM. Again, when we changed the 4-fluoro by a 4-chloro on EM-8419, we obtained a pure androgen (EM-5313).
We also believed that a larger size increase could reverse the observed tendency (androgen to SARM or antiandrogen). Thus, it is not obvious to make good predictions of the biological activity of this compound family but some trends are observable.

The subject of data set [7] is Shionogi mouse mammary carcinoma cells. The data set is described as follows: cells. The data set is classed as cell-based. The note with it: for Ki: read-out: Shionogi cells Antiandrogenic activity Ki.
For data set [8] the following is noted: in vivo.
Data set [9] has as its system Intact Rat. Put plainly: In vivo activity in intact rat (organ and muscle weight). The settings on record: rat, in vivo.
Data set [10] relates to Immature Rat CX.
[11] abbreviates: po, read-out: In Vivo Antagonist % Change vs DHT (CX = −100%) SV.
The mark [12] stands for this setting: po, read-out: In Vivo Antagonist % Change vs DHT (CX = −100%) VP.

The structures appear in SMILES notation. Values joined by “and” are separate entries in the source; they are usually repeats but may differ in a detail not shown here. Identical values can stand only once. Like-named read-outs stand apart in the source and are kept apart here.

Broadly, the AUC is concentration integrated over time. High values mean high exposure, low ones low exposure. In general, Ki refers to the equilibrium dissociation constant of an inhibitor or competing ligand from its target. Take `C[C@]12CCC3c4ccc(C#N)c(F)c4CCC3C1CC[C@@]2(O)Cc1cc[n+]([O-])cc1` (some centres unmarked) [EM-5854]: in data set [1] (setting [11]), the change in vivo at 0.1 mg is -86 ± 2% and the change in vivo at 0.5 mg was -85%. In addition, in data set [1] (setting [12]), the change in vivo at 0.1 mg is -46 ± 2% and the change in vivo at 0.5 mg is -76%. In data set [1] (rat, in vivo), the “inhibition of DHT-stimulated seminal vesicle weight” value amounted to 85%, the “inhibition of DHT-stimulated ventral prostate weight” value amounted to 76% and the “potency on rat androgen-sensitive parameters relative to currently available antiandrogens” value is recorded as “approximately 5 times”. Besides, the “Rat Androgen Receptor Binding RBA (%) R1881 = 100%” value in [2] worked out at 0.4 ± 0.1%. The same molecule showed an AUC in data set [3] (plasma) of 2930 ± 233 ng·h/mL. In [4], the “Human Androgen Receptor Binding RBA (%) R1881 = 100%” value is recorded as 0.63 ± 0.08%. Besides, in data set [5] (0.2 mg/rat/per os/ID), the “% change vs 4-DIONE Cont (CX Cont = −100% inh) Seminal Vesicles” value is −69 ± 7% and the “% change vs 4-DIONE Cont (CX Cont = −100% inh) Ventral Prostate” value was −34 ± 7%. Besides, in data set [5] (1 mg/rat/per os/ID), the “% change vs 4-DIONE Cont (CX Cont = −100% inh) Seminal Vesicles” value is −109 ± 5% and the “% change vs 4-DIONE Cont (CX Cont = −100% inh) Ventral Prostate” value is on record as −67 ± 2%. For the same molecule, in data set [5] (daily oral dose of 1 mg/rat), the “reversal of the stimulatory effect of 4-dione on ventral prostate weight” value worked out at 67%. Further, the “4-dione-induced stimulation of seminal vesicle weight” value in [5] (orchidectomized mature rats with 4-dione implants) is recorded as “completely reversed”. Moreover, in data set [6], the “activity profile (antiandrogen, SARM or androgen)” value is “pure antiandrogen”. Further, in data set [7], the “Shionogi cells Antiandrogenic activity Ki OH-Flu/Ki compound” value is 5.5 and 5.5 ± 1.2; the inhibition constant Ki worked out at 2.5 ± 0.4 nM.
Take `CC12CCC3c4ccc(C#N)c(Cl)c4CCC3C1CCCC2(O)Cc1cc[n+]([O-])cc1` (centres unmarked) [EM-5945]: the “Rat Androgen Receptor Binding RBA (%) R1881 = 100%” value in [2] is given as 0.3%. For the same molecule, in data set [8] (po), the “Prostate Conc, 7 h (Rat)” value is recorded as 1539 ng/g. The “Human Androgen Receptor Binding RBA (%) R1881 = 100%” value in data set [4] is on record as 2.8 ± 0.4%. In data set [7], the “Shionogi cells Antiandrogenic activity Ki OH-Flu/Ki compound” value turned out to be 13 and the inhibition constant Ki came to 0.9 nM.
With `CC12CCC3c4ccc(C#N)c(F)c4CCC3C1CCC2(O)Cc1ccc(-c2ccc[n+]([O-])c2)cc1` (centres unmarked) [EM-8419], in data set [1] (rat, in vivo, po), the “In Vivo Anti-A Rat CX + DHT % change vs DHT (CX CONT = −100%) Bulbo” value is recorded as “+36 ± 11%”, the “In Vivo Anti-A Rat CX + DHT % change vs DHT (CX CONT = −100%) SV” value is on record as −33 ± 7% and the “In Vivo Anti-A Rat CX + DHT % change vs DHT (CX CONT = −100%) VP” value is −36 ± 0%. For the same molecule, the “AUC 24 h 0.5 mg/rat oral” value in data set [8] is 5725 ± 595 ng·h/mL. In data set [9], the “In Vivo Intact Rat % change vs Intact CONT (Intact CONT = +100%; CX CONT = 0%) Bulbo” value is “+238 ± 12%”, the “In Vivo Intact Rat % change vs Intact CONT (Intact CONT = +100%; CX CONT = 0%) SZ” value is given as “+76 ± 2%” and the “In Vivo Intact Rat % change vs Intact CONT (Intact CONT = +100%; CX CONT = 0%) VP” value was “+89 ± 5%”. In [4], the “Human Androgen Receptor Binding RBA (%) R1881 = 100%” value amounted to 83 ± 35%. In addition, the “activity profile (antiandrogen, SARM or androgen)” value in data set [6] was “became a SARM”. In addition, in data set [7], the “% of stim of basal at 10^−7M (% over basal)” value is recorded as “+94 ± 17%” and the “% of stim of basal at 10^−7 M (DHT = 100%)” value is recorded as “+62 ± 11%”. The “% of inh of DHT at 10^−7 M (Basal = 100%)” value in data set [7] (0.0003 µM) is listed as “+21 ± 11%”. In data set [10], the “In Vivo Agonist Rat CX % change vs CX (DHT CONT = +100%) Bulbo” value is on record as “+115 ± 4%”, the “In Vivo Agonist Rat CX % change vs CX (DHT CONT = +100%) SV” value is listed as “+26 ± 2%” and the “In Vivo Agonist Rat CX % change vs CX (DHT CONT = +100%) VP” value was “+39 ± 6%”.
Turning to `CC(C)(O)C(=O)Nc1ccc([N+](=O)[O-])c(C(F)(F)F)c1` [Hydroxyflutamide, reference compound], the “Rat Androgen Receptor Binding RBA (%) R1881 = 100%” value in [2] stood at 0.1%. Also, the area under the curve (AUC) in [3] (in vivo) came out at 5380 ± 820 ng·h/mL. Besides, in data set [4], the “Human Androgen Receptor Binding RBA (%) R1881 = 100%” value is 0.21 ± 0.09%. Also, in data set [7], the “Shionogi cells Antiandrogenic activity Ki OH-Flu/Ki compound” value is recorded as 1 and the Ki stood at 16.8 ± 0.5 nM.
